≈ marks a conversion by molar mass, not a printed value. Like-named read-outs stand apart in the source and are kept apart here.
Legend:
[1] = system: GLC-15 human lung cancer cell strain; test: modified MTT in vitro screening, GLC-15; assay type: cell-based
Source text: (§1) 1. Screening research in vitro, employing modified MTT of anticancer substance activity. Cancer Cell Strain: [table]

[2] = system: SGC-7901 human gastric cancer cell strain; test: modified MTT in vitro screening, SGC-7901; assay type: cell-based
Source text: as §1

[3] = system: HL60 human leukemia cell strain; test: modified MTT in vitro screening, HL60; assay type: cell-based
Source text: as §1

[4] = system: HEP-2 human laryngeal cancer cell strain; test: modified MTT in vitro screening, HEP-2; assay type: cell-based
Source text: as §1

[5] = system: Bel-7402 human hepatic cancer cell strain; test: modified MTT in vitro screening, Bel-7402; assay type: cell-based
Source text: as §1

[6] = animal body weight, Lewis lung cancer mice; assay type: in vivo, mouse
Source text: (§2) After inoculating Kunming murine for H22 hepatic cancer and murine Lewis lung cancer, three kinds of preparation, i.e., suspension, emulsion, and lyophilized preparation, are administrated in three different ways of administration comprising gastric perfusion, intraperitoneal injection and intravenous injection, and the administration dose is high, middle and low respectively.

[7] = system: mouse Lewis lung cancer; test: curative effect on mouse Lewis lung cancer in vivo
Experimental: as §2, with “respectively. Then the curative effect is compared with positive control group and the tumour inhibition efficiency is calculated, and the results are shown as follows: […]” for “respectively.”

[8] = system: A549 human lung cancer cell strain; test: modified MTT in vitro screening, A549; assay type: cell-based; conditions: for IC50: A549
Source text: as §1

[9] = system: SMMC-7721 human hepatic cancer cell strain; test: modified MTT in vitro screening, SMMC-7721; assay type: cell-based
Source text: as §1

[10] = system: PC-3 human prostate cancer cell strain; test: modified MTT in vitro screening, PC-3; assay type: cell-based
Source text: as §1

[11] = mouse, in vivo
Experimental: as §2, with “respectively. Then the curative effect is compared with positive control group and the tumour inhibition efficiency is calculated, and the results are shown as follows: […]” for “respectively.”

[12] = system: mouse H22 liver cancer; test: curative effect on mouse H22 liver cancer in vivo
Experimental: as §2, with “respectively. Then the curative effect is compared with positive control group and the tumour inhibition efficiency is calculated, and the results are shown as follows: […]” for “respectively.”

[13] = Table VI, 7 mg/kg/d Ipx2, the first, third days
[14] = Homo sapiens, read-out: Ic 50 for the growth of tumour cells
[15] = mouse, in vivo, iv, 5 mg/kg/day
[16] = mouse, in vivo, iv, 10 mg/kg/day
[17] = mouse, in vivo, iv, 15 mg/kg/day
[18] = emulsion, intravenous, 5 mg/kg/d ivx10qd
[19] = emulsion, intravenous, 10 mg/kg/d ivx10qd
[20] = emulsion, intravenous, 15 mg/kg/d ivx10qd
[21] = lyophilized preparation, intravenous, 5 mg/kg/d ivx10qd
[22] = lyophilized preparation, intravenous, 10 mg/kg/d ivx10qd
[23] = lyophilized preparation, intravenous, 15 mg/kg/d ivx10qd
[24] = suspension, gastric perfusion, 30 mg/kg/d igx10qd
[25] = suspension, gastric perfusion, 60 mg/kg/d igx10qd
[26] = suspension, gastric perfusion, 90 mg/kg/d igx10qd
[27] = suspension, intraperitoneal administration (igx10qd), 30 mg/kg/d
[28] = suspension, intraperitoneal administration (igx10qd), 60 mg/kg/d
[29] = suspension, intraperitoneal administration (igx10qd), 90 mg/kg/d

N.N.[Cl][Pt][Cl] [DDP(Cisplatin), Cisplatin, reference compound]
Ic 50 for the growth of tumour cells [1]: 1.72 µg/mL
Ic 50 for the growth of tumour cells [2]: 0.89 µg/mL
Ic 50 for the growth of tumour cells [3]: 0.695 µg/mL
Ic 50 for the growth of tumour cells ([4]; HEP-2): 0.3 µg/mL
Ic 50 for the growth of tumour cells [5]: 2.31 µg/mL
Animal body weight (g) end ([6]; Table VI, 7 mg/kg/d Ipx2, the first, third days, end): 18.1 g
Animal body weight (g) Start ([6]; Table VI, 7 mg/kg/d Ipx2, the first, third days, start): 18.4 g
Inhibition efficiency [7, 13]: 92.98
Tumour weight (g) X ± SD [7, 13]: 0.172 ± 0.06 g
Ic 50 for growth of the human lung cancer cells ([8]; human lung cancer cells): 1.6 µg/mL
Ic 50 for the growth of tumour cells [9]: 0.21 µg/mL
Ic 50 for the growth of tumour cells [10]: 1.85 µg/mL

CC(=O)OC(C)(C)CCC(=O)[C@](C)(O)[C@H]1[C@H](O)C[C@@]2(C)[C@@H]3CC=C4[C@@H](C[C@H](O)[C@@H](O)C4(C)C)[C@]3(C)C(=O)C[C@]12C [Curcurbitacin IIa, dihydrocucurbitacin F-25-O-acetate]
IC50 [1, 14]: 14.6 µg/mL (≈ 25.9 µM)
IC50 [2, 14]: 8.71 µg/mL (≈ 15.5 µM)
IC50 ([3]; Homo sapiens, HL-60, read-out: Ic 50 for the growth of tumour cells): 43.2 µg/mL (≈ 76.8 µM)
Animal body weight (g) Start ([11]; 30 mg/kg/day): 19.0 g
Animal body weight (g) end ([11]; 30 mg/kg/day): 26.0 g
Animal body weight (g) Start ([11]; 60 mg/kg/day): 19.3 g
Animal body weight (g) end ([11]; 60 mg/kg/day): 26.3 g
Animal body weight (g) Start ([11]; 90 mg/kg/day): 19.1 g
Animal body weight (g) end ([11]; 90 mg/kg/day): 25.7 g
Animal body weight (g) end ([11]; iv, 10 mg/kg/day): 25.9 g
IC50 ([4]; Homo sapiens, HEp-2, read-out: Ic 50 for the growth of tumour cells): 15.8 µg/mL (≈ 28.1 µM)
IC50 [5, 14]: > 100 µg/mL
Animal body weight (g) Start ([6]; mouse, in vivo, 5 mg/kg/day): 18.1 g
Animal body weight (g) end ([6]; mouse, in vivo, 5 mg/kg/day): 20.5 g
Animal body weight (g) Start ([6]; mouse, in vivo, 10 mg/kg/day): 17.7 g
Animal body weight (g) end ([6]; mouse, in vivo, 10 mg/kg/day): 21.1 g
Animal body weight (g) Start ([6]; mouse, in vivo, 15 mg/kg/day): 18.0 g
Animal body weight (g) end ([6]; mouse, in vivo, 15 mg/kg/day): 20.7 g
Animal body weight (g) Start [6, 15]: 19.3 g
Animal body weight (g) end [6, 15]: 22.4 g
Animal body weight (g) Start [6, 16]: 19.1 g
Animal body weight (g) end [6, 16]: 22.9 g
Animal body weight (g) Start [6, 17]: 19.5 g
Animal body weight (g) end [6, 17]: 22.1 g
Inhibition efficiency [7, 18]: 40.76
Tumour weight (g) X ± SD [7, 18]: 1.69 ± 0.11 g
Inhibition efficiency [7, 19]: 47.37
Tumour weight (g) X ± SD [7, 19]: 1.50 ± 0.14 g
Inhibition efficiency [7, 20]: 59.30
Tumour weight (g) X ± SD [7, 20]: 1.16 ± 0.16 g
Tumour weight (g) X ± SD ([7]; lyophilized preparation, 5 mg/kg/d ivx10qd): 1.56 ± 0.14 g
Tumour weight (g) X ± SD ([7]; lyophilized preparation, 10 mg/kg/d ivx10qd): 1.34 ± 0.18 g
Tumour weight (g) X ± SD ([7]; lyophilized preparation, 15 mg/kg/d ivx10qd): 1.20 ± 0.20 g
Inhibition efficiency ([7]; lyophilized preparation, hypodermic inoculation, 5 mg/kg/d ivx10qd): 36.33
Inhibition efficiency ([7]; lyophilized preparation, hypodermic inoculation, 10 mg/kg/d ivx10qd): 45.31
Inhibition efficiency ([7]; lyophilized preparation, hypodermic inoculation, 15 mg/kg/d ivx10qd): 51.20
IC50 ([8]; human lung cancer cells, read-out: Ic 50 for growth of the human lung cancer cells): 1.5 µg/mL (≈ 2.67 µM)
IC50 [8, 14]: 1.5 µg/mL (≈ 2.67 µM)
IC50 [9, 14]: 22.3 µg/mL (≈ 39.6 µM)
IC50 [10, 14]: 10.1 µg/mL (≈ 17.9 µM)
Inhibition efficiency [12, 18]: 32.38
Tumour weight (g) X ± SD [12, 18]: 2.13 ± 0.20 g
Inhibition efficiency [12, 19]: 44.12
Tumour weight (g) X ± SD [12, 19]: 1.76 ± 0.08 g
Inhibition efficiency [12, 20]: 55.02
Tumour weight (g) X ± SD [12, 20]: 1.48 ± 0.11 g
Inhibition efficiency [12, 21]: 31.1
Tumour weight (g) X ± SD [12, 21]: 2.06 ± 0.18 g
Inhibition efficiency [12, 22]: 39.13
Tumour weight (g) X ± SD [12, 22]: 1.82 ± 0.19 g
Inhibition efficiency [12, 23]: 46.15
Tumour weight (g) X ± SD [12, 23]: 1.61 ± 0.18 g
Inhibition efficiency [12, 24]: 27.13
Tumour weight (g) X ± SD [12, 24]: 2.31 ± 0.21 g
Inhibition efficiency [12, 25]: 32.09
Tumour weight (g) X ± SD [12, 25]: 2.14 ± 0.20 g
Inhibition efficiency [12, 26]: 38.17
Tumour weight (g) X ± SD [12, 26]: 1.96 ± 0.16 g
Inhibition efficiency [12, 27]: 36.07
Tumour weight (g) X ± SD [12, 27]: 1.95 ± 0.12 g
Inhibition efficiency [12, 28]: 51.05
Tumour weight (g) X ± SD [12, 28]: 1.49 ± 0.12 g
Inhibition efficiency [12, 29]: 57.05
Tumour weight (g) X ± SD [12, 29]: 1.31 ± 0.12 g

Source: patent publication US20100168451A1, “PREPARATIVE METHOD OF DIHYDROCUCURBITACIN F-25-O-ACETATE AND THE USE THEREOF IN THE MANUFACTURE OF MEDICAMENTS FOR TREATING CANCERS” (priority 2007, published 2010)
